Laboratory results reported in patent US20240132484A1, “BROAD SPECTRUM ANTIVIRAL COMPOUNDS TARGETING THE SKI COMPLEX” (priority 2020, published 2024).
Where “and” joins values, the source holds several entries; their conditions need not be identical. Equal values may be shown once. Read-outs that look alike come from different tables or passages of the source.

What was measured:
SARS2 = type: cell-based, SARS-CoV-2; details: for Percentage Infection Relative to Appropriate DMSO Control with Avg Background Subtraction: Greiner Celigo plates; for Infection Data, Average, Mean: average of Exp 1-3 (SMW475, SMW477, SMW478)
cells (nuclei count) = details: for Toxicity Data, Average, Mean: average of Exp 1-3 (SMW475, SMW477, SMW478)

`CCN(CC)CCN(Cc1ccccc1)Cc1ccccn1` [SILCS33] was tested, and the “Percentage Infection Relative to Appropriate DMSO Control with Avg Background Subtraction” value (SARS2; Exp 1 (SMW475), 1 uM) was 53.62% and 101.44% and 86.72%, the “Percentage Infection Relative to Appropriate DMSO Control with Avg Background Subtraction” value (SARS2; Exp 1 (SMW475), 5 uM) was 69.33% and 82.60% and 84.98% and the “Percentage Infection Relative to Appropriate DMSO Control with Avg Background Subtraction” value (SARS2; Exp 1 (SMW475), 10 uM) was 79.81% and 90.19% and 84.97%. The “Percentage Infection Relative to Appropriate DMSO Control with Avg Background Subtraction” value (SARS2; Exp 1 (SMW475), 50 uM) was 52.39% and 69.09% and 65.56%, the “Percentage Infection Relative to Appropriate DMSO Control with Avg Background Subtraction” value (SARS2; Exp 2 (SMW477), 1 uM) was 120.88% and 113.91% and 111.55% and the “Percentage Infection Relative to Appropriate DMSO Control with Avg Background Subtraction” value (SARS2; Exp 2 (SMW477), 5 uM) was 128.80% and 118.55% and 121.74%. The “Percentage Infection Relative to Appropriate DMSO Control with Avg Background Subtraction” value (SARS2; Exp 2 (SMW477), 10 uM) was 114.36% and 136.38% and 130.63%, the “Percentage Infection Relative to Appropriate DMSO Control with Avg Background Subtraction” value (SARS2; Exp 2 (SMW477), 25 uM) was 73.62% and 97.76% and 95.99% and the “Percentage Infection Relative to Appropriate DMSO Control with Avg Background Subtraction” value (SARS2; Exp 2 (SMW477), 50 uM) was 31.41% and 36.50% and 41.52%. The “Percentage Infection Relative to Appropriate DMSO Control with Avg Background Subtraction” value (SARS2; Exp 3 (SMW478), 5 uM) was 121.27% and 137.96% and 122.71%, the “Percentage Infection Relative to Appropriate DMSO Control with Avg Background Subtraction” value (SARS2; Exp 3 (SMW478), 10 uM) was 159.81% and 126.46% and 162.16% and the “Percentage Infection Relative to Appropriate DMSO Control with Avg Background Subtraction” value (SARS2; Exp 3 (SMW478), 25 uM) was 126.24% and 109.99% and 117.46%. For the same molecule, the “Percentage Infection Relative to Appropriate DMSO Control with Avg Background Subtraction” value (SARS2; Exp 3 (SMW478), 50 uM) was 71.82% and 89.49% and 84.99%, the “Percentage Inhibition Average 1 μM” value (SARS2; SARS2, 1 μM) was 28.78% and the “Screening data (Relative infection to DMSO controls) Average 1 μM” value (SARS2; SARS2, 1 μM, 100=DMSO control) was 71.22. The “Percentage Inhibition Average 5 μM” value (SARS2; SARS2, 5 μM) was −9.77%, the “Screening data (Relative infection to DMSO controls) Average 5 μM” value (SARS2; SARS2, 5 μM, 100=DMSO control) was 109.77 and the “Percentage Inhibition Average 10 μM” value (SARS2; SARS2, 10 μM) was −20.53%. The “Screening data (Relative infection to DMSO controls) Average 10 μM” value (SARS2; SARS2, 10 μM, 100=DMSO control) was 120.53, the “Percentage Inhibition Average 25 μM” value (SARS2; SARS2, 25 μM) was 24.68% and the “Screening data (Relative infection to DMSO controls) Average 25 μM” value (SARS2; SARS2, 25 μM, 100=DMSO control) was 75.32. The “Percentage Inhibition Average 50 μM” value (SARS2; SARS2, 50 μM) was 39.69%, the “Screening data (Relative infection to DMSO controls) Average 50 μM” value (SARS2; SARS2, 50 μM, 100=DMSO control) was 60.31 and the “Average (relative infection to DMSO over the 5 tested concentrations)” value (SARS2; SARS2, average over 1 to 50 uM, 100=DMSO control) was 87.43. For the same molecule, the “Infection Data, Average, Mean” value (SARS2; n 9, 1 uM) was 71.22%, the “Infection Data, Average, Mean” value (SARS2; n 9, 5 uM) was 109.77% and the “Infection Data, Average, Mean” value (SARS2; n 9, 10 uM) was 120.53%. The “Infection Data, Average, Mean” value (SARS2; n 9, 25 uM) was 75.32%, the “Infection Data, Average, Mean” value (SARS2; n 9, 50 uM) was 60.31% and the “Relative cell count to DMSO controls, Average 1 μM” value (cells (nuclei count); 1 μM, toxicity data, 100=DMSO control) was 118.72. For the same molecule, the “Relative cell count to DMSO controls, Average 5 μM” value (cells (nuclei count); 5 μM, toxicity data, 100=DMSO control) was 94.18, the “Relative cell count to DMSO controls, Average 10 μM” value (cells (nuclei count); 10 μM, toxicity data, 100=DMSO control) was 80.17 and the “Relative cell count to DMSO controls, Average 25 μM” value (cells (nuclei count); 25 μM, toxicity data, 100=DMSO control) was 85.8. The “Relative cell count to DMSO controls, Average 50 μM” value (cells (nuclei count); 50 μM, toxicity data, 100=DMSO control) was 59.2, the “Toxicity Data, Average, Mean” value (cells (nuclei count); n 9, 1 uM) was 118.72% and the “Toxicity Data, Average, Mean” value (cells (nuclei count); n 9, 5 uM) was 94.18%. For the same molecule, the “Toxicity Data, Average, Mean” value (cells (nuclei count); n 9, 10 uM) was 80.17%, the “Toxicity Data, Average, Mean” value (cells (nuclei count); n 9, 25 uM) was 85.80% and the “Toxicity Data, Average, Mean” value (cells (nuclei count); n 9, 50 uM) was 59.20%. For the same molecule, the “Relative cell count to DMSO controls, Average (for correlation analysis)” value (cells (nuclei count); average value over the 5 tested concentrations (1 to 50 uM)) was 87.61.
